Values quoted from earlier work as cited in US8741563B2, “Metronidazole resistance in trichomonas vaginalis and single nucleotide polymorphisms” (priority 2011, dated 2014).

System: Trichomonas vaginalis
Conditions: reported effectiveness of metronidazole treatment

In the case of `Cc1ncc([N+](=O)[O-])n1CCO` [Metronidazole], the treatment effective is listed as 85-95%.
